{"source": "ChEMBL document CHEMBL4706551", "about": "“Rational design of new multitarget histamine H receptor ligands as potential candidates for treatment of Alzheimer's disease” (Eur J Med Chem, 2020)", "key": {"Rattus norvegicus [1]": {"test_system": "Rattus norvegicus", "assay": "Analgesic activity in Wistar (Krf:WI) rat assessed as inhibition of carrageenan-induced mechanical inflammatory hyperalgesia by measuring paw withdrawl threshold at 30 mg/kg treated prior to carrageenan challenge and measured after 3 to 24 hrs (reference value: 88.4 to 90.9 %)", "assay_type": "functional", "parameters": "scale not given: the % may be the effect or the level left", "conditions": "time 3-24 hrs"}, "Rattus norvegicus [2]": {"test_system": "Rattus norvegicus", "assay": "Analgesic activity in carragenan-induced thermal hyperalgesia model of Wistar (Krf:WI) rat assessed as latency of nociceptive response for radiant heat stimulation at 30 mg/kg treated prior to carrageenan challenge and measured after 24 hrs (reference value: 83.3%)", "assay_type": "functional"}, "Mus musculus [3]": {"test_system": "Mus musculus", "assay": "(§1) Antiallodynic activity in oxaliplatin-induced peripheral neuropathy pain CD-1 mouse model assessed as inhibition of early-phase tactile allodynia by measuring pain sensitivity threshold administered with compound intraperitoneally at 3 hrs after oxaliplatin stimulation and measured after 30 mins by von Frey test", "assay_type": "functional, organism-based", "conditions": "dose 15-30 mg/kg"}, "Acetylcholinesterase [4]": {"biological_target": "Acetylcholinesterase (Electrophorus electricus, UniProt O42275)", "sequence (O42275 whole entry)": "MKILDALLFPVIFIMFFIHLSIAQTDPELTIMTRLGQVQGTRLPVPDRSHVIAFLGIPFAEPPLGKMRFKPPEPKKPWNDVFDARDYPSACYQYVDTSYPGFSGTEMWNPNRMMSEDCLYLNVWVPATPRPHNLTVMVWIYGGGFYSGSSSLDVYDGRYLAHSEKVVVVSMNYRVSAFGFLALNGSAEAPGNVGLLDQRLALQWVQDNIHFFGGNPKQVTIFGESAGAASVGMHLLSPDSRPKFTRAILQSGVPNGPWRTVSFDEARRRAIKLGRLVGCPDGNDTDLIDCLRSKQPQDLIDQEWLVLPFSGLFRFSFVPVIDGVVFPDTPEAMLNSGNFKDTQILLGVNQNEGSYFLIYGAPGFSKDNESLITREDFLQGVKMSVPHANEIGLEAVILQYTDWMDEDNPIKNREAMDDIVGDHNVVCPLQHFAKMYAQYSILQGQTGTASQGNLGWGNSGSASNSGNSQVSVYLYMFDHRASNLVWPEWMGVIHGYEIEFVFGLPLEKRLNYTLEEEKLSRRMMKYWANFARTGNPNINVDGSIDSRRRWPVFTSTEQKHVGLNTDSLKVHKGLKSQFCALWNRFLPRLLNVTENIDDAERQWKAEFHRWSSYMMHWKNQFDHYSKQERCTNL", "description": "Inhibition of Electric eel AChE using ATCI as substrate incubated for 5 mins followed by substrate addition and measured after 5 mins by spectrophotometric based Ellman's method"}, "Mus musculus [5]": {"test_system": "Mus musculus", "assay": "as §1, with “threshold at 15 mg/kg” for “threshold”, “test (reference value: 61.2 %)” for “test”", "assay_type": "functional", "parameters": "scale not given: the % may be the effect or the level left", "conditions": "0.5 h"}, "Mus musculus [6]": {"test_system": "Mus musculus", "assay": "as §1, with “threshold at 22.5 mg/kg” for “threshold”, “test (reference value: 61.2 %)” for “test”", "assay_type": "functional", "parameters": "scale not given: the % may be the effect or the level left", "conditions": "0.5 h"}, "Mus musculus [7]": {"test_system": "Mus musculus", "assay": "Analgesic activity in formalin-induced nociception CD-1 mouse model assessed as reduction in pain behaviour by measuring less licking of formalin injected hind paw compound administered intraperitoneally prior to formalin induction and measured during early phase (0 to 5 mins after formalin injection) by formalin test", "assay_type": "functional", "conditions": "CD-1, ip, time 0-5 min"}, "Rattus norvegicus [8]": {"test_system": "Rattus norvegicus", "assay": "Antiinflammatory activity against Wistar (Krf:WI) rat assessed as reduction in carragenan-induced paw edema at 22.5 mg/kg treated prior to carrageenan challenge and measured after 24 hrs by plethysmometry relative to control", "assay_type": "functional"}, "Rattus norvegicus [9]": {"test_system": "Rattus norvegicus", "assay": "Analgesic activity in carragenan-induced thermal hyperalgesia model of Wistar (Krf:WI) rat assessed as latency of nociceptive response for radiant heat stimulation at 30 mg/kg treated prior to carrageenan challenge and measured after 6 hrs (reference value: 43.2%)", "assay_type": "functional"}, "[10]": {"biological_target": "T1, Amine oxidase [flavin-containing] B (Homo sapiens, UniProt P27338)", "T1 sequence (P27338 whole entry)": "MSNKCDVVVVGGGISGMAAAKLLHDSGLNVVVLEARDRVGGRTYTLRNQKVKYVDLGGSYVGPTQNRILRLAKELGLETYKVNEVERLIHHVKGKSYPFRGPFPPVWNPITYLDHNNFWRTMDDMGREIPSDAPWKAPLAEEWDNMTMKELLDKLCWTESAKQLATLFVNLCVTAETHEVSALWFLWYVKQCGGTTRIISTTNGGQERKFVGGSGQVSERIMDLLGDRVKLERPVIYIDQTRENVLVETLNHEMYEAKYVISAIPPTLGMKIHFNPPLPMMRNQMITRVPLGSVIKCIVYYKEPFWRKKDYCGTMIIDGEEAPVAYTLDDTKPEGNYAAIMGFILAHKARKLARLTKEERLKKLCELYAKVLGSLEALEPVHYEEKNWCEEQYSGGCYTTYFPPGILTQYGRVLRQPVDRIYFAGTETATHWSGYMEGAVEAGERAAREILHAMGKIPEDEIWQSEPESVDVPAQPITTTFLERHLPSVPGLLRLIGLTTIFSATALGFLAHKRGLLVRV", "assay": "biochemical", "assay_type": "cell-based, BTI", "description": "Inhibition of recombinant human MAO-B expressed in baculovirus infected BTI cells using p-tyramine as substrate by fluorometric assay"}, "Rattus norvegicus [11]": {"test_system": "Rattus norvegicus", "assay": "Memory enhancement effect in dizocilpine-induced Wistar (Krf:WI) rat model of amnesia assessed as increase in step through latency administered with compound intraperitoneally and measured after 30 to 45 mins by step-through passive avoidance test", "assay_type": "functional, organism-based", "conditions": "dose 1.25-5 mg/kg, time 30-45 min"}, "Rattus norvegicus [12]": {"test_system": "Rattus norvegicus", "assay": "Antiinflammatory activity against Wistar (Krf:WI) rat assessed as reduction in carragenan-induced paw edema at 30 mg/kg treated prior to carrageenan challenge and measured after 1 hr by plethysmometry relative to control", "assay_type": "functional"}, "MAO-A": {"biological_target": "T2, MAO-A (Homo sapiens, UniProt P21397)", "T2 sequence (P21397 whole entry)": "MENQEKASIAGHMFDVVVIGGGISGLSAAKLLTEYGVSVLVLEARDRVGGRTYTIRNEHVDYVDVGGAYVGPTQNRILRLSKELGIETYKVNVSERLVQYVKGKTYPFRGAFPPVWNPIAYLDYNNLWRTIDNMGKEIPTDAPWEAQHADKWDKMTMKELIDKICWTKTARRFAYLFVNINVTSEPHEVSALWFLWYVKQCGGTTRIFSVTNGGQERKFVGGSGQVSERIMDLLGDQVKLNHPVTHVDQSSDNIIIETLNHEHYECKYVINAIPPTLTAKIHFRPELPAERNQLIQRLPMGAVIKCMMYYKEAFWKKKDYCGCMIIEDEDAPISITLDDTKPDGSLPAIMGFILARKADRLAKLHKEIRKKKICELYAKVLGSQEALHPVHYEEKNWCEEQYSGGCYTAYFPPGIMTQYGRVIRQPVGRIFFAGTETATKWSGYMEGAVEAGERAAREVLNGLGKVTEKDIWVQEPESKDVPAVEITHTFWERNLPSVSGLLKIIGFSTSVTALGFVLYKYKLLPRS", "assay": "Inhibition of recombinant human MAO-A expressed in baculovirus infected BTI cells at 10 uM using p-tyramine as substrate by fluorometric assay relative to control", "conditions": "probe p-tyramine"}, "Histamine H3 receptor": {"biological_target": "Histamine H3 receptor (Homo sapiens, UniProt Q9Y5N1)", "sequence (Q9Y5N1 whole entry)": "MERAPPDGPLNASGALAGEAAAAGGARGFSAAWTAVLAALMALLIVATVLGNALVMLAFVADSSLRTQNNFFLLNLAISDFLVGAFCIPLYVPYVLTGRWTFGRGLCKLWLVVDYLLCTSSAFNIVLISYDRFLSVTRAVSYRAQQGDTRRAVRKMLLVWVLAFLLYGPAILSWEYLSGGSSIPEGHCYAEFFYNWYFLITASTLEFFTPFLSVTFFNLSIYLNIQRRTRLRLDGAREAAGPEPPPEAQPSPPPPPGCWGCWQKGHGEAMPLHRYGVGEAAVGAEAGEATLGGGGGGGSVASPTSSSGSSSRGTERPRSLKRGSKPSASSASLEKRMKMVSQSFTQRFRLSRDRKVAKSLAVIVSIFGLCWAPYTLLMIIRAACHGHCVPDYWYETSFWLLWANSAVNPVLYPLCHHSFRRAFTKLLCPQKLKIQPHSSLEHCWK", "assay": "biochemical", "description": "Displacement of [3H]N-alpha-methylhistamine from recombinant human histamine H3 receptor expressed in CHO-K1 cells by microbeta scintillation analysis"}, "Rattus norvegicus [13]": {"test_system": "Rattus norvegicus", "assay": "Analgesic activity in carragenan-induced thermal hyperalgesia model of Wistar (Krf:WI) rat assessed as latency of nociceptive response for radiant heat stimulation at 30 mg/kg treated prior to carrageenan challenge and measured after 2 hrs (reference value: 63.6%)", "assay_type": "functional"}, "Acetylcholinesterase [14]": {"biological_target": "Acetylcholinesterase (Homo sapiens, UniProt P22303)", "sequence (P22303 whole entry)": "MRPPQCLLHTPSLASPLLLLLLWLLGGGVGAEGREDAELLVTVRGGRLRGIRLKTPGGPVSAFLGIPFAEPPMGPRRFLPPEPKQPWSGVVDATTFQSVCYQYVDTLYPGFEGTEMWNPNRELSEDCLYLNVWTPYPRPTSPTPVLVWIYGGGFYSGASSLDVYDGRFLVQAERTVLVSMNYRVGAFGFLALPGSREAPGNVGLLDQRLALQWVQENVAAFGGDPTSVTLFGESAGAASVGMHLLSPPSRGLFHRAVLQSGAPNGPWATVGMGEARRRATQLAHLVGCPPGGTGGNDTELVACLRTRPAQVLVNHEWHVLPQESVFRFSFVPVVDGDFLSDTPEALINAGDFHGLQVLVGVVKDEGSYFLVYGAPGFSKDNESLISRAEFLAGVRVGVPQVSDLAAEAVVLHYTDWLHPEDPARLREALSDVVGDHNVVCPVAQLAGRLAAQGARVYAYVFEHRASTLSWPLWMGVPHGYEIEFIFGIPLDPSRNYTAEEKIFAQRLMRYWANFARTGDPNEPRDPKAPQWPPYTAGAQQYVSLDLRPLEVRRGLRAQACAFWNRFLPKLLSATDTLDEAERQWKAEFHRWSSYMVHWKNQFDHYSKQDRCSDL", "assay": "Inhibition of recombinant human AChE using ATCI as substrate incubated for 5 mins followed by substrate addition and measured after 5 mins by spectrophotometric based Ellman's method"}, "Rattus norvegicus [15]": {"test_system": "Rattus norvegicus", "assay": "Antiinflammatory activity against Wistar (Krf:WI) rat assessed as reduction in carragenan-induced paw edema at 22.5 mg/kg treated prior to carrageenan challenge and measured after 6 hrs by plethysmometry relative to control", "assay_type": "functional"}, "Rattus norvegicus [16]": {"test_system": "Rattus norvegicus", "assay": "Analgesic activity in carragenan-induced thermal hyperalgesia model of Wistar (Krf:WI) rat assessed as latency of nociceptive response for radiant heat stimulation at 30 mg/kg treated prior to carrageenan challenge and measured after 3 hrs (reference value: 50.3%)", "assay_type": "functional"}, "in vitro": {"assay": "in vitro", "conditions": "PAMPA, pH 7.4", "description": "Permeability of compound in PBS buffer assessed as permeability coefficient at pH 7.4 at 200 uM incubated for 5 hrs by PAMPA based LC-MS analysis"}, "Rattus norvegicus [17]": {"test_system": "Rattus norvegicus", "assay": "Analgesic activity in Wistar (Krf:WI) rat assessed as inhibition of carrageenan-induced mechanical inflammatory hyperalgesia by measuring paw withdrawl threshold at 22.5 mg/kg treated prior to carrageenan challenge and measured upto 24 hrs (reference value: 88.4 to 90.9 %)", "assay_type": "functional", "parameters": "scale not given: the % may be the effect or the level left", "conditions": "time hrs <=24"}, "Mus musculus [18]": {"test_system": "Mus musculus", "assay": "as §1, with “late-phase” for “early-phase”, “threshold at 22.5 mg/kg” for “threshold”, “7 days” for “3 hrs”, “test (reference value: 65.3%)” for “test”", "assay_type": "functional", "parameters": "scale not given: the % may be the effect or the level left", "conditions": "0.5 h"}, "Rattus norvegicus [19]": {"test_system": "Rattus norvegicus", "assay": "Antiinflammatory activity against Wistar (Krf:WI) rat assessed as reduction in carragenan-induced paw edema at 30 mg/kg treated prior to carrageenan challenge and measured after 2 hrs by plethysmometry relative to control", "assay_type": "functional"}}}
{"smiles": "O=c1c2ccccc2oc2ccc(OCCCCCN3CCCCCC3)cc12", "values": [{"measurement": "Activity", "setting": "Rattus norvegicus [1]", "value": 118, "unit": "%"}, {"measurement": "Activity", "setting": "Rattus norvegicus [2]", "value": 116, "unit": "%"}, {"measurement": "Activity", "setting": "Mus musculus [3]", "value": "Dose-dependent effect"}, {"measurement": "IC50", "setting": "Acetylcholinesterase [4]", "value": 180, "unit": "nM"}, {"measurement": "Activity", "setting": "Mus musculus [5]", "value": 88.5, "unit": "%"}, {"measurement": "Activity", "setting": "Mus musculus [6]", "value": 90.6, "unit": "%"}, {"measurement": "ED50", "setting": "Mus musculus [7]", "value": 24.7, "unit": "mg/kg"}, {"measurement": "inhibition in vivo at 22.5 mg/kg", "setting": "Rattus norvegicus [8]", "value": 22.4, "unit": "%"}, {"measurement": "Activity", "setting": "Rattus norvegicus [9]", "value": 92, "unit": "%"}, {"measurement": "IC50", "setting": "[10]", "value": 775, "unit": "nM"}, {"measurement": "Activity", "setting": "Rattus norvegicus [11]", "value": "Dose-dependent effect"}, {"measurement": "inhibition in vivo at 30 mg/kg", "setting": "Rattus norvegicus [12]", "value": 77.9, "unit": "%"}, {"measurement": "inhibition at 10 µM", "setting": "MAO-A", "value": "< 50", "unit": "%"}, {"measurement": "Ki", "setting": "Histamine H3 receptor", "value": 170, "unit": "nM"}, {"measurement": "Activity", "setting": "Rattus norvegicus [13]", "value": 102.8, "unit": "%"}, {"measurement": "IC50", "setting": "Acetylcholinesterase [14]", "value": 392, "unit": "nM"}, {"measurement": "inhibition in vivo at 22.5 mg/kg", "setting": "Rattus norvegicus [15]", "value": 19.4, "unit": "%"}, {"measurement": "Activity", "setting": "Rattus norvegicus [16]", "value": 96, "unit": "%"}, {"measurement": "Papp at 5 h, 200 µM", "setting": "in vitro", "value": 5.6, "unit": "×10⁻⁶ cm/s"}, {"measurement": "Activity", "setting": "Rattus norvegicus [17]", "value": 94.6, "unit": "%"}, {"measurement": "Activity", "setting": "Mus musculus [18]", "value": 88.5, "unit": "%"}, {"measurement": "inhibition in vivo at 30 mg/kg", "setting": "Rattus norvegicus [19]", "value": 53.3, "unit": "%"}]}
